Results on two compounds are retold here after patent US5286864A, “Quinuclidines, their use as medicaments and processes for their preparation” (Boehringer Ingelheim KG, priority 1988, dated 1994).

For one test, the system named is conscious rabbit. Briefly: EEG (electroencephalogram) of the conscious rabbit. Format: in vivo. Particulars: 3 mg/kg i.v.
In another test the target is muscarine receptors. Briefly: Receptor bonding studies (radioligand L(+)cis-[2-methyl-^3 H]-N,N,N-trimethyl-1,3-dioxolane-4-methanammonium iodide). Format: binding. Conditions: cerebral cortex (rat); radioligand L(+)cis-[2-methyl-^3 H]-N,N,N-trimethyl-1,3-dioxolane-4-methanammonium iodide NET-647. How it is done: The compounds of the general formula I have useful pharmacological properties.
The receptor bonding studies were performed in accordance with the following literature reference [A. Closse, H. bittiger, D. Langenegger and A. Wahner; Naunyn-Schmiedeberg's Arch. Pharmacol. 335,372-377 (1987)].
Receptor bonding studies
L(+)cis-[2-methyl-^3 H]-N,N,N-trimethyl-1,3-
dioxolane-4-methanammonium iodide NET-647,
NEN (New England Nuclear DU PONT).
Organ: Cerebral cortex (rat)

A word on the Ki: it is the equilibrium dissociation constant of an inhibitor or competing ligand from its target. A higher Ki goes with weaker binding. In the case of `C#CCOC1CN2CCC1CC2` (stereo not drawn) [Example 1, 3-(2-Propynyloxy)-1-azabicyclo[2,2,2]octane], in the test on conscious rabbit, the “arousal reaction in the EEG” value was “exhibits an arousal reaction typical of cholinomimetics”. Further, the affinity on muscarine receptors corresponds to a Ki of 159 nM. As for `CCCOC1CN2CCC1CC2` (stereo not drawn) [nC3 H7], the Ki on muscarine receptors is 220 nM.
